{"source": "patent US6703213B2", "about": "“Substrate analogs for MurG, methods of making same and assays using same” (The Trustees of Princeton University, priority 1998, dated 2004)", "biological_target": "T1, wild type E. coli MurG (Escherichia coli, UniProt P17443)", "T1 construct": "made in house; host or cells: E. coli BL21(DE3)pLysS, pET3a vector", "T1 sequence (P17443 whole entry)": "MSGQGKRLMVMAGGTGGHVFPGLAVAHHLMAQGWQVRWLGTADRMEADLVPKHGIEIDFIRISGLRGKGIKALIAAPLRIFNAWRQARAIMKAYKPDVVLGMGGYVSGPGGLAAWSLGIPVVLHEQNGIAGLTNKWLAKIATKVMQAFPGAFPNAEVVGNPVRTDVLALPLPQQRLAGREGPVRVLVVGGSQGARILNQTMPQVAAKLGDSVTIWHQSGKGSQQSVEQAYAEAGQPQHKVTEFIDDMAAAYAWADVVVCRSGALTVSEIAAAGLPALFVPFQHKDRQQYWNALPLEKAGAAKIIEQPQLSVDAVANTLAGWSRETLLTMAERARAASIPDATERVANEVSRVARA", "experiment": "Initial rate assays with purified, soluble enzyme", "type": "biochemical", "details": "rapid equilibrium sequential mechanism assumed; 0.08 μM purified MurG; UDP-GlcNAc as varied substrate", "experimental": "The following solutions are prepared prior to the assays: 1) 177.3 μM [^14C]-UDP-GlcNAc in H2O (0.05 mCi/mL); 2) 1.5 mM UDP-GlcNAc in H2O; 3) biotinylated Lipid I analog (1b) at 0.5 μg/μL; 4) 10×reaction buffer containing 50 mM HEPES (pH 7.9) and 5 mM MgCl2. The enzyme stock is prepared by diluting the purified enzyme with TBSE to a final concentration of 0.04 μg/μL in a 0.5 mL tube and storing at 4° C. for two days prior to running the assays.\nThirty reactions are prepared by individually mixing 2 μL of 10×reaction buffer with an appropriate amount of biotinylated Lipid I analog (1b), radioactive UDP-GlcNAc, nonradioactive UDP-GlcNAc, and H2O to a final volume of 18 μl. The final concentration for the Lipid I analog (1b) are 7 μM, 10 μM, 15 μM, 30 μM, 100 μM, and for UDP-GlcNAc 11 μM, 15 μM, 20 μM, 40 μM, 100 μM, 200 μM. Reactions are initiated by adding 2 μL of the enzyme stock and are run for 4 minutes at 24° C. Reactions are stopped by adding 10 μl of 1% (w/v) SDS.\nDeionized H2O is added to each tube to a final volume of approximately 250 μL and the suspension is transferred to a […] 96-well filter plate fitted to a vacuum-line fitted MultiScreen Assay System (Millipore). The resin is washed 15 times with 0.2 mL deionized H2O. […] Samples are counted immediately on a Beckman LS5000 scintillation counter.", "data": [{"smiles": "CC(=O)N[C@H]1[C@@H](OP(=O)(O)OP(=O)(O)OC[C@H]2O[C@@H](n3ccc(=O)[nH]c3=O)[C@H](O)[C@@H]2O)O[C@H](CO)[C@@H](O)[C@@H]1O", "note": "[UDP-GLCNAC, UDP-N-acetylglucosamine]", "values": [{"measurement": "KUDP-GLCNAC", "value": 110, "unit": "µM"}]}]}
